Reference: ChEMBL document CHEMBL1201862, “PubChem BioAssay data set” (2004)
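48-hour exposure; five concentrations; linearly interpolated endpoints. GI50 is the concentration that inhibits growth by half.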 Activity calls are given as the source filed them. Rule as the data show it: active = GI50 up to about 1.1 µM and inactive = higher.

Tests used:
Experiment in all cases: NCI tumour cell line growth inhibition, 48 h
UACC-62 = tested on: UACC-62
HCT-116 = tested on: HCT-116
U-251 = tested on: U-251
DMS-273 = tested on: DMS-273
786-0 = tested on: 786-0
KM12 = tested on: KM12
OVCAR-4 = tested on: OVCAR-4
HCC 2998 = tested on: HCC 2998
OVCAR-3 = tested on: OVCAR-3
RPMI-8226 = tested on: RPMI-8226
SK-MEL-2 = tested on: SK-MEL-2
ACHN = tested on: ACHN
A549 = tested on: A549
HOP-92 = tested on: HOP-92
TK-10 = tested on: TK-10
HOP-18 = tested on: HOP-18
M14 = tested on: M14
SF-295 = tested on: SF-295
MOLT-4 = tested on: MOLT-4
UO-31 = tested on: UO-31
HL-60 = tested on: HL-60
KM-20L2 = tested on: KM-20L2
DMS-114 = tested on: DMS-114
SK-MEL-5 = tested on: SK-MEL-5
LOX IMVI = tested on: LOX IMVI
HCT-15 = tested on: HCT-15
IGROV-1 = tested on: IGROV-1
M19-MEL = tested on: M19-MEL
SN12C = tested on: SN12C
SF-539 = tested on: SF-539
SNB-78 = tested on: SNB-78
RXF 631 = tested on: RXF 631
SNB-75 = tested on: SNB-75
SNB-19 = tested on: SNB-19
SW-620 = tested on: SW-620
OVCAR-5 = tested on: OVCAR-5
COLO 205 = tested on: COLO 205
RXF 393 = tested on: RXF 393
OVCAR-8 = tested on: OVCAR-8
DLD-1 = tested on: DLD-1
NCI-H23 = tested on: NCI-H23
HOP-62 = tested on: HOP-62
EKVX = tested on: EKVX
CCRF-CEM = tested on: CCRF-CEM
SF-268 = tested on: SF-268
K562 = tested on: K562
SK-OV-3 = tested on: SK-OV-3
LXFL 529 = tested on: LXFL 529
Malme-3M = tested on: Malme-3M
NCI-H460 = tested on: NCI-H460
NCI-H226 = tested on: NCI-H226
SR = tested on: SR
CAKI-1 = tested on: CAKI-1
SK-MEL-28 = tested on: SK-MEL-28
NCI-H522 = tested on: NCI-H522
A498 = tested on: A498
HT-29 = tested on: HT-29
UACC-257 = tested on: UACC-257

Measured: GI50

CC(=O)/C=C\C1CC2C=CC1C2 (centres undefined)
22.5 µM: HCT-15
inactive: UACC-62 58.3 µM | HCT-116 15.2 µM | U-251 45.4 µM | DMS-273 41 µM | 786-0 43.1 µM | KM12 32.3 µM | OVCAR-4 27.1 µM | HCC 2998 24.3 µM | OVCAR-3 37.8 µM | RPMI-8226 23.9 µM | SK-MEL-2 49.2 µM | ACHN 79.3 µM | A549 67.1 µM | HOP-92 29.2 µM | TK-10 86.5 µM | HOP-18 96.6 µM | M14 33.7 µM | SF-295 31 µM | MOLT-4 20.8 µM | UO-31 41 µM | HL-60 26.8 µM | KM-20L2 40.2 µM | DMS-114 21.5 µM | SK-MEL-5 57.9 µM | LOX IMVI 14.1 µM | IGROV-1 81.3 µM | M19-MEL 55.3 µM | SN12C 26.7 µM | SF-539 37.4 µM | SNB-78 22.1 µM | RXF 631 51.5 µM | SNB-75 21.6 µM | SNB-19 53.5 µM | SW-620 33.7 µM | OVCAR-5 53.3 µM | COLO 205 37.6 µM | RXF 393 63 µM | OVCAR-8 36.3 µM | DLD-1 15.1 µM | NCI-H23 36.1 µM | HOP-62 92.3 µM | EKVX 64.9 µM | CCRF-CEM 16.3 µM | SF-268 25.8 µM | K562 21.6 µM | SK-OV-3 > 100 µM | LXFL 529 29.4 µM | Malme-3M 27.2 µM | NCI-H460 44.1 µM

COc1cc(C2[C@H]3C(=O)N(c4ccc(Cc5ccc(N6C(=O)[C@@H]7ON(c8ccccc8)C(c8cc(OC)c(OC)c(OC)c8)[C@@H]7C6=O)cc5)cc4)C(=O)[C@H]3ON2c2ccccc2)cc(OC)c1OC (some centres undefined)
inactive: UACC-62 95.3 µM | HCT-116 > 100 µM | NCI-H226 > 100 µM | U-251 > 100 µM | DMS-273 > 100 µM | 786-0 > 100 µM | KM12 > 100 µM | OVCAR-4 > 100 µM | HCC 2998 > 100 µM | OVCAR-3 > 100 µM | RPMI-8226 > 100 µM | SK-MEL-2 > 100 µM | ACHN > 100 µM | A549 > 100 µM | TK-10 > 100 µM | SR > 100 µM | HOP-18 > 100 µM | M14 17 µM | SF-295 > 100 µM | MOLT-4 > 100 µM | UO-31 > 100 µM | HL-60 > 100 µM | KM-20L2 > 100 µM | DMS-114 > 100 µM | SK-MEL-5 38.5 µM | LOX IMVI > 100 µM | IGROV-1 > 100 µM | M19-MEL > 100 µM | SN12C > 100 µM | SF-539 > 100 µM | SNB-78 > 100 µM | RXF 631 > 100 µM | SNB-75 > 100 µM | CAKI-1 > 100 µM | SNB-19 > 100 µM | SW-620 > 100 µM | OVCAR-5 > 100 µM | COLO 205 > 100 µM | RXF 393 > 100 µM | SK-MEL-28 > 100 µM | OVCAR-8 > 100 µM | DLD-1 > 100 µM | NCI-H23 > 100 µM | HOP-62 > 100 µM | EKVX > 100 µM | CCRF-CEM > 100 µM | NCI-H522 > 100 µM | SF-268 > 100 µM | K562 > 100 µM | SK-OV-3 > 100 µM | A498 > 100 µM | Malme-3M 46.3 µM | HT-29 > 100 µM | UACC-257 > 100 µM | NCI-H460 > 100 µM
> 100 µM: HCT-15

CCCCCNC(=O)c1c(O)[nH]c(=S)[nH]c1=O
90.6 µM: HCT-15
inactive: UACC-62 > 100 µM | HCT-116 > 100 µM | NCI-H226 > 100 µM | U-251 66.8 µM | 786-0 > 100 µM | KM12 > 100 µM | OVCAR-4 41.6 µM | OVCAR-3 > 100 µM | RPMI-8226 > 100 µM | SK-MEL-2 > 100 µM | ACHN > 100 µM | A549 66.5 µM | HOP-92 > 100 µM | TK-10 > 100 µM | SR > 100 µM | M14 > 100 µM | SF-295 78.2 µM | MOLT-4 > 100 µM | HL-60 > 100 µM | KM-20L2 > 100 µM | DMS-114 60.7 µM | SK-MEL-5 > 100 µM | LOX IMVI > 100 µM | IGROV-1 > 100 µM | M19-MEL > 100 µM | SN12C > 100 µM | SF-539 > 100 µM | SNB-78 > 100 µM | RXF 631 > 100 µM | SNB-75 > 100 µM | CAKI-1 > 100 µM | SNB-19 > 100 µM | SW-620 > 100 µM | OVCAR-5 > 100 µM | COLO 205 > 100 µM | SK-MEL-28 > 100 µM | OVCAR-8 94.4 µM | NCI-H23 > 100 µM | HOP-62 > 100 µM | CCRF-CEM > 100 µM | NCI-H522 > 100 µM | SF-268 > 100 µM | K562 > 100 µM | SK-OV-3 > 100 µM | LXFL 529 > 100 µM | A498 96.8 µM | Malme-3M > 100 µM | HT-29 > 100 µM | UACC-257 > 100 µM | NCI-H460 > 100 µM

C=CCNC(=O)/C=C\C(=O)O
inactive: UACC-62 > 100 µM | HCT-116 > 100 µM | NCI-H226 > 100 µM | U-251 > 100 µM | DMS-273 > 100 µM | 786-0 > 100 µM | KM12 > 100 µM | OVCAR-4 > 100 µM | HCC 2998 > 100 µM | OVCAR-3 > 100 µM | SK-MEL-2 > 100 µM | ACHN > 100 µM | A549 > 100 µM | HOP-92 > 100 µM | TK-10 > 100 µM | SR > 100 µM | HOP-18 > 100 µM | M14 > 100 µM | SF-295 > 100 µM | MOLT-4 > 100 µM | UO-31 > 100 µM | HL-60 > 100 µM | KM-20L2 > 100 µM | DMS-114 > 100 µM | SK-MEL-5 > 100 µM | LOX IMVI > 100 µM | IGROV-1 > 100 µM | M19-MEL > 100 µM | SN12C > 100 µM | SF-539 > 100 µM | SNB-78 > 100 µM | RXF 631 > 100 µM | SNB-75 > 100 µM | CAKI-1 > 100 µM | SNB-19 > 100 µM | SW-620 > 100 µM | OVCAR-5 > 100 µM | COLO 205 > 100 µM | RXF 393 > 100 µM | SK-MEL-28 > 100 µM | OVCAR-8 > 100 µM | DLD-1 > 100 µM | NCI-H23 > 100 µM | HOP-62 > 100 µM | EKVX > 100 µM | CCRF-CEM > 100 µM | NCI-H522 > 100 µM | SF-268 > 100 µM | K562 > 100 µM | SK-OV-3 > 100 µM | LXFL 529 > 100 µM | A498 > 100 µM | Malme-3M > 100 µM | HT-29 > 100 µM | UACC-257 > 100 µM | NCI-H460 > 100 µM
> 100 µM: HCT-15
